Results as given in patent US20230375576A1, “METHODS FOR THE TREATMENT OF FAMILIAL HETEROZYGOUS AND HOMOZYGOUS HYPERCHOLESTEROLEMIA WITH CYCLODEXTRINS” (Beren Therapeutics P.B.C., priority 2021, published 2023).
“Also recorded” adds a separate entry of the source.

Assays:
[1] = tested on: ABCA1; assay: mRNA expression of ABCA1 in whole blood from HoFH patients; format: cell-based, human; details: 1.2 mM HPBCD, 6 hours, normalized to saline control, FIG. 1B
Description: This example aims to investigate the effects of HPBCD (2-hydroxypropyl-beta-cyclodextrin) on cholesterol efflux capacity in HoFH patients. HPBCD was added to whole blood obtained from HoFH patients at concentration of 1.2 mM. Untreated samples were used as control. The mixtures were incubated for 6 hours. Total mRNA was isolated and mRNA expression levels were measured. Data is shown as the level of gene expression normalized to saline control.

[2] = Cholesterol crystal dissolution capacity in plasma of HoFH patients (D6-labeled cholesterol in filtrate, GC-MS); details: human plasma from HoFH patients; D6-labeled cholesterol crystals added; compared to control group; FIG. 1A
Description: D6-labeled cholesterol crystals were added to human plasma collected from homozygous familial hypercholesterolemia (HoFH) patients treated with HPBCD (2-hydroxypropyl-beta-cyclodextrin). The reaction mixtures were filtered to remove crystals and the filtrate was assayed for the presence of D6-labeled cholesterol using gas chromatography-mass spectroscopy (GC-MS). Cholesterol measured in the filtrate indicated the ability of HPBCD (2-hydroxypropyl-beta-cyclodextrin) to dissolve cholesterol crystals.

[3] = tested on: Ldlr−/− mice; assay: Effect on liver weight in Ldlr−/− mouse model; format: in vivo; details: Ldlr−/− mice on Western diet; 2 g/kg subcutaneously after five weeks; livers weighed up to 4 weeks post-HPBCD; versus untreated mice; FIG. 3
Excerpt: To evaluate the effect of HPBCD (2-hydroxypropyl-beta-cyclodextrin) on liver weight, experiments using Ldlr−/− mice were designed as described in FIGS. 2A and 2B. The mice were fed normal chow diet (NC) or high-fat (42%), high-cholesterol (1.2) diet Western diet (WD) as described in Table 1 and Table 2. After five weeks, the mice were subcutaneously injected with 2 g/kg […]. The livers were excised and weighed after five weeks (Group 1, 2, 6), six weeks (Group 3), seven weeks (Group 4), and nine weeks (Group 5), respectively. [table] [table]

**Q.** Which results are given for `CC(O)COC[C@H]1O[C@@H]2O[C@H]3[C@H](O)[C@@H](O)[C@@H](O[C@H]4[C@H](O)[C@@H](O)[C@@H](O[C@H]5[C@H](O)[C@@H](O)[C@@H](O[C@H]6[C@H](O)[C@@H](O)[C@@H](O[C@H]7[C@H](O)[C@@H](O)[C@@H](O[C@H]8[C@H](O)[C@@H](O)[C@@H](O[C@H]1[C@H](O)[C@H]2O)O[C@@H]8COCC(C)O)O[C@@H]7COCC(C)O)O[C@@H]6COCC(C)O)O[C@@H]5COCC(C)O)O[C@@H]4COCC(C)O)O[C@@H]3COCC(C)O` (stereo partly drawn) [HPBCD, 2-hydroxypropyl-beta-cyclodextrin]?
**A.** mRNA expression level of ABCA1 [1]: significant induction; cholesterol crystal dissolution [2]: significantly increased; liver weight [3]: inhibits increase of liver weight; also recorded: did not show any further increase in liver weight
